The record followed here is US20050221456A1, “Use of indanoyl amide to stimulate secondary metabolism in Taxus sp” (Phyton Biotech, Inc., priority 2004, published 2005).

Holding throughout (type): cell-based
Assay [1] concerns Taxus chinensis cells. As to the kind of experiment: Fed batch addition of 6-EII, taxane production in Taxus chinensis suspension culture (12 days). Particulars: for Baccatin III / Paclitaxel: harvest after 12 days in production medium; for Total: total taxanes, harvest after 12 days. The text has this:
The medium also contains an indanoyl amide as described in the present application, optionally in combination with one or more jasmonic acid-related substance, and these materials may be added at the beginning of the culture, after the exponential growth phase, or intermittantly throughout the culture period. The other ingredients of the medium may be added all at one time or at different times during the cultivation and may be fed continuously or intermittently. The ingredients may be added either before or after the inclusion of plant cells in the culture broth. Further, nutrients or other ingredients may be additionally added during cultivation, if deemed useful. Optionally, the medium may be changed after a suitable period of cultivation whereby the cells are freshly exposed to a medium containing similar ingredients as described above. Such changes could involve changes to the amounts of sugars such as glucose, fructose, sucrose, maltose, etc., nitrogen sources such as nitrate, ammonium, or amino acids or casamino acids, etc. After a period of cultivation, the culture is harvested and the levels of taxanes are quantified using HPLC and specific taxanes are identified using LC/MS/MS. Taxanes can be recovered from these cultures by appropriate extraction and purification procedures. For Experiments 2-8, Taxus cells were cultivated as callus cultures on solid medium and then further cultivated as suspensions of cell aggregates in liquid medium. Although taxanes can be produced by cultivation on solid medium, the use of liquid medium is preferred. The temperature of cultivation was controlled between 20 and 30 degrees Celsius. This experiment was carried out according to the following parameters. […] Taxus chinensis cells were cultivated as callus and then as suspended cells in growth medium (Medium A shown in Table B) containing 1% maltose and B5 salts according to the methods described above. After seven days of cultivation in this medium, the suspended cells were substantially separated from this medium and placed at about 20% (w/v) fresh cells into a production medium consisting of about 20% (v/v) spent growth medium and 80% (v/v) basal production medium (Medium B shown in Table B, but 1.25-fold concentrated) with an initial pH of 5.8 and containing 20 micromol/l MDCA and 50 micromol/l SLTS (Silver Thiosulfate). […] The gas phase was controlled to 25% oxygen and 4.5% CO2 (balance nitrogen) and the temperature was held at 25±2 degrees Celsius. The cells were cultivated in the dark and were agitated at 100-150 rpm for the duration of the experiment. After 12 days of cultivation in production medium, the culture was harvested for taxanes.

Assay [2] deals with Taxus cells. As to the kind of experiment: Batch addition of 6-EII in combination with other medium components, taxane production. Particulars: batch mode. The method, then: Taxus cells were cultivated using procedures similar to those used for Example 2. The media were composed of different combinations of 6-EII (or methyl jasmonate-MJS), NAA, SLTS, MDCA and Glutamine. All ingredients were added in a batch mode, i.e., all at once.

The subject of assay [3] is Taxus chinensis cells. In words: Effect of 6-EII in combination with other medium ingredients on taxane yield (14 days). The method, then:
This experiment was carried out according to the following parameters. Taxus chinensis cells were cultivated as callus and then as suspended cells on growth Medium A (Table B), according to the methods described above. After seven days of cultivation in this medium, the suspended cells were substantially separated from this medium and placed at approximately 20% (w/v) fresh cells into a basal production medium (Medium B, Table B) with an initial pH of 5.8. In addition to the components listed in Medium B, the medium additionally comprised 5 millimol/l glutamine. The gas phase was controlled to oxygen at 90-97% of the value in air and 2.5-6% CO2; the temperature was held at 25±2 degrees Celsius. The cells were cultivated in the dark and were agitated at 150-200 rpm for the duration of the experiment. After 14 days of cultivation in production medium, the culture was harvested for taxanes.

Assay [4] concerns Taxus chinensis cells. As to the kind of experiment: Effect of silver nitrate and 6-EII on taxane production (14 days). Particulars: silver as nitrate salt or thiosulfate complex. The text has this:
Taxus chinensis cells were cultivated as callus and then as suspended cells on growth medium (Table B, Medium A) according to the methods described above in Examples 1 and 2. After seven days of cultivation in this medium, the suspended cells were substantially separated from this medium and placed at ca. 20% (w/v) fresh cells into Medium B (Table B) at an initial pH of 5.8. In addition to the components listed in Table B, 20 micromol/l NAA, 20 micromol/l MDCA, 5 mmol/l GLN, MJS or 6-EII and silver as a nitrate salt or thiosulfate complex were added to the medium at various levels. The gas phase was controlled to oxygen at 90-97% of the levels in air and CO2 at 2.5-6%; the temperature was held at 25±2 degrees Celsius. The cells were cultivated in the dark and were agitated at 150-200 rpm for the duration of the experiment. After 14 days of cultivation in production medium, the culture was harvested for taxanes.

Where [5] appears, read: cumulative 12-day fed batch dose 20 micromol/l.
The mark [6] stands for this setting: cumulative 12-day fed batch dose 50 micromol/l.
Where [7] appears, read: cumulative 12-day fed batch dose 75 micromol/l.
[8] abbreviates: cumulative 12-day fed batch dose 100 micromol/l.

As to 6-ethyl-indanoyl-isoleucine [6-EII], in assay [1] (12-day fed batch treatment), the “activity on taxane production compared with methyl jasmonate” value is recorded as “comparable activity”. Moreover, the “Baccatin III” value in assay [1] (setting [5]) is 159 mg/L; in assay [1] (setting [6]), 358 mg/L; in assay [1] (setting [7]), 605 mg/L; in assay [1] (setting [8]), 616 mg/L. The Paclitaxel came out at 443 mg/L in assay [1] (setting [5]), 495 mg/L in assay [1] (setting [6]), 556 mg/L in assay [1] (setting [7]) and 557 mg/L in assay [1] (setting [8]). In addition, the Total came to 694 mg/L in assay [1] (setting [5]), 1301 mg/L in assay [1] (setting [6]), 1693 mg/L in assay [1] (setting [7]) and 1702 mg/L in assay [1] (setting [8]). Further, in assay [2] (all ingredients added at once), the “activity in improving taxane production compared with MJS” value is “comparable activity in improving taxane production”. In assay [2] (combined with NAA), the “interaction with auxin-type growth regulator NAA on taxane production” value was “interact positively to improve taxane production”. For the same substance, in assay [2] (combined with glutamine), the “interaction with glutamine on taxane production” value was “interact favorably to improve taxane production”. Also, in assay [2] (combined with silver (SLTS)), the “interaction with silver on overall production of taxanes” value is “works synergistically with silver to increase overall production of taxanes”. Also, the “effect on baccatin-III versus paclitaxel production” value in assay [2] (with silver) was “improve baccatin-III production without reducing the amount of paclitaxel produced”. Besides, the “taxane yield, 6-EII by itself” value in assay [3] (6-EII 5-500 micromol/l, by itself) is recorded as “increase in taxane yield”. Also, the “taxane yield, combined with NAA” value in assay [3] (6-EII with 20 micromol/l NAA) is given as “yield improved by a significantly higher amount”. In addition, the “taxane yield, combined with NAA and silver” value in assay [3] (6-EII with 20 micromol/l NAA and 50 micromol/l silver (thiosulfate complex)) was “yield further increased”. In addition, the “taxane yield, combined with NAA, silver and MDCA” value in assay [3] (6-EII with 20 micromol/l NAA, 50 micromol/l silver and 20 micromol/l MDCA) was “yield increased even further”. The “interaction with silver on taxane production” value in assay [4] is on record as “act synergistically”.
